Molecules are shown by their SMILES. Counter-ions that a name gives are not always drawn.

Turning to `CS(=O)(=O)Nn1c(=O)[nH]c2cc(C(F)(F)F)c(-c3cccc(CN)c3)cc2c1=O` (as salt: hydrochloride) [Example 38, N-[6-(3-Aminomethyl-phenyl)-2,4-dioxo-7-trifluoromethyl-1,4-dihydro-2H-quinazolin-3-yl]methanesulfonamide], the melting point lay within 282 to 284 °C.

`CC(O)c1cc2c(=O)n(NS(C)(=O)=O)c(=O)[nH]c2cc1C(F)(F)F` (racemic) [Example 2, N-[6-(1-Hydroxy-ethyl)-2,4-dioxo-7-trifluoromethyl-1,4-dihydro-2H-quinazolin-3-yl]-methanesulfonamide] had a melting point of 263 to 268 °C.

`CC(=O)c1cc2c(=O)n(NS(C)(=O)=O)c(=O)[nH]c2cc1C(F)(F)F` [Example 1, N-(6-Acetyl-2,4-dioxo-7-trifluoromethyl-1,4-dihydro-2H-quinazolin-3-yl)-methanesulfonamide]: the melting point was 258 to 265 °C.

`COC(C)c1cc2c(=O)n(NS(C)(=O)=O)c(=O)[nH]c2cc1C(F)(F)F` (stereo not drawn) [Example 3, N-[6-(1-Methoxy-ethyl)-2,4-dioxo-7-trifluoromethyl-1,4-dihydro-2H-quinazolin-3-yl]-methanesulfonamide] registered a melting point of 233 to 236 °C.

`CC(C)OC(C)c1cc2c(=O)n(NS(C)(=O)=O)c(=O)[nH]c2cc1C(F)(F)F` (stereo not drawn) [Example 5, N-[6-(1-Isopropoxy-ethyl)-2,4-dioxo-7-trifluoromethyl-1,4-dihydro-2H-quinazolin-3-yl]-methanesulfonamide] returned a melting point of 110 to 115 °C.

The compound `CCC(=O)c1cc2c(=O)n(NS(C)(=O)=O)c(=O)[nH]c2cc1C(F)(F)F` [Example 6, N-(2,4-Dioxo-6-propionyl-7-trifluoromethyl-1,4-dihydro-2H-quinazolin-3-yl)-methanesulfonamide] displayed a melting point of 234 to 236 °C.

`CCC(O)c1cc2c(=O)n(NS(C)(=O)=O)c(=O)[nH]c2cc1C(F)(F)F` (stereo not drawn) [Example 7, N-[6-(1-Hydroxy-propyl)-2,4-dioxo-7-trifluoromethyl-1,4-dihydro-2H-quinazolin-3-yl]-methanesulfonamide] gave a melting point of 219 to 222 °C.

Regarding `CCCC(=O)c1cc2c(=O)n(NS(C)(=O)=O)c(=O)[nH]c2cc1C(F)(F)F` [Example 10, N-(6-Butyryl-2,4-dioxo-7-trifluoromethyl-1,4-dihydro-2H-quinazolin-3-yl)-methanesulfonamide], the melting point was 236 to 239 °C.

In turn, `CCCC(O)c1cc2c(=O)n(NS(C)(=O)=O)c(=O)[nH]c2cc1C(F)(F)F` (stereo not drawn) [Example 11, N-[6-(1-Hydroxy-butyl)-2,4-dioxo-7-trifluoromethyl-1,4-dihydro-2H-quinazolin-3-yl]-methanesulfonamide] showed a melting point of 223 to 226 °C.

As for `CS(=O)(=O)Nn1c(=O)[nH]c2cc(C(F)(F)F)c(C3CCCO3)cc2c1=O` (stereo not drawn) [Example 12, N-[2,4-Dioxo-6-(tetrahydro-furan-2-yl)-7-trifluoromethyl-1,4-dihydro-2H-quinazolin-3-yl]-methanesulfonamide], the melting point lay within 254 to 257 °C.

In turn, `CCCOC(C)c1cc2c(=O)n(NS(C)(=O)=O)c(=O)[nH]c2cc1C(F)(F)F` (stereo not drawn) [Example 14, N-[2,4-Dioxo-6-(1-propoxy-ethyl)-7-trifluoromethyl-1,4-dihydro-2H-quinazolin-3-yl]-methanesulfonamide] returned a melting point of 95 to 105 °C.

Regarding `CCCCOC(C)c1cc2c(=O)n(NS(C)(=O)=O)c(=O)[nH]c2cc1C(F)(F)F` (stereo not drawn) [Example 15, N-[6-(1-Butoxy-ethyl)-2,4-dioxo-7-trifluoromethyl-1,4-dihydro-2H-quinazolin-3-yl]-methanesulfonamide], the melting point lay within 84 to 90 °C.

The compound `CC(OC1CCCC1)c1cc2c(=O)n(NS(C)(=O)=O)c(=O)[nH]c2cc1C(F)(F)F` (stereo not drawn) [Example 17, N-[6-(1-Cyclopentyloxy-ethyl)-2,4-dioxo-7-trifluoromethyl-1,4-dihydro-2H-quinazolin-3-yl]-methanesulfonamide] showed a melting point of 188 to 192 °C.

The compound `CS(=O)(=O)Nn1c(=O)[nH]c2cc(C(F)(F)F)c(C(=O)C(F)(F)F)cc2c1=O` [Example 20, N-[2,4-Dioxo-6-(2,2,2,-trifluoro-acetyl)-7-trifluoromethyl-1,4-dihydro-2H-quinazolin-3-yl]-methanesulfonamide] came in with a melting point of 262 to 265 °C.

Compound `CC(C)C(=O)c1cc2c(=O)n(NS(C)(=O)=O)c(=O)[nH]c2cc1C(F)(F)F` [Example 21, N-(6-Isobutyryl-2,4-dioxo-7-trifluoromethyl-1,4-dihydro-2H-quinazolin-3-yl)-methanesulfonamide] showed a melting point of 228 to 231 °C.

Turning to `CC(C)C(O)c1cc2c(=O)n(NS(C)(=O)=O)c(=O)[nH]c2cc1C(F)(F)F` (stereo not drawn) [Example 22, N-[6-(1-Hydroxy-2-methyl-propyl)-2,4-dioxo-7-trifluoromethyl-1,4-dihydro-2H-quinazolin-3-yl]methanesulfonamide], the melting point was 232 to 235 °C.

As for `COC(c1cc2c(=O)n(NS(C)(=O)=O)c(=O)[nH]c2cc1C(F)(F)F)C(C)C` (stereo not drawn) [Example 23, N-[6-(1-Methoxy-2-methyl-propyl)-2,4-dioxo-7-trifluoromethyl-1,4-dihydro-2H-quinazolin-3-yl]-methanesulfonamide], the melting point lay within 227 to 229 °C.

The compound `CS(=O)(=O)Nn1c(=O)[nH]c2cc(C(F)(F)F)c(C3CCCCO3)cc2c1=O` (stereo not drawn) [Example 24, N-[2,4-Dioxo-6-(tetrahydro-pyran-2-yl)-7-trifluoromethyl-1,4-dihydro-2H-quinazolin-3-yl]-methanesulfonamide] gave a melting point of 275 to 280 °C.

In turn, `CS(=O)(=O)Nn1c(=O)[nH]c2cc(C(F)(F)F)c(CCCO)cc2c1=O` [Example 25, N-[6-(3-Hydroxy-propyl)-2,4-dioxo-7-trifluoromethyl-1,4-dihydro-2H-quinazolin-3-yl]-methanesulfonamide] had a melting point of 243 to 247 °C.

The compound `CS(=O)(=O)Nn1c(=O)[nH]c2cc(C(F)(F)F)c(-c3cccc(C#N)c3)cc2c1=O` [Example 34, N-[6-(3-Cyano-phenyl)-2,4-dioxo-7-trifluoromethyl-1,4-dihydro-2H-quinazolin-3-yl]-methanesulfonamide] registered a melting point of 291 to 292 °C.

The compound `CS(=O)(=O)Nn1c(=O)[nH]c2cc(C(F)(F)F)c(-c3ccc(C#N)cc3)cc2c1=O` [Example 35, N-[6-(4-Cyano-phenyl)-2,4-dioxo-7-trifluoromethyl-1,4-dihydro-2H-quinazolin-3-yl]-methanesulfonamide] had a melting point of 145 to 147 °C.

`CC(=O)c1cccc(-c2cc3c(=O)n(NS(C)(=O)=O)c(=O)[nH]c3cc2C(F)(F)F)c1` [Example 36, N-[6-(3-Acetyl-phenyl)-2,4-dioxo-7-trifluoromethyl-1,4-dihydro-2H-quinazolin-3-yl]-methanesulfonamide] returned a melting point of 220 to 222 °C.

Turning to `CC(O)c1cccc(-c2cc3c(=O)n(NS(C)(=O)=O)c(=O)[nH]c3cc2C(F)(F)F)c1` (stereo not drawn) [Example 37, N-{6-[3-(1-Hydroxy-ethyl)-phenyl]-2,4-dioxo-7-trifluoromethyl-1,4-dihydro-2H-quinazolin-3-yl}-methanesulfonamide], the melting point is 165 to 169 °C.

Take `CN(C)Cc1cccc(-c2cc3c(=O)n(NS(C)(=O)=O)c(=O)[nH]c3cc2C(F)(F)F)c1` [Example 39, N-[6-(3-Dimethylaminomethyl-phenyl)-2,4-dioxo-7-trifluoromethyl-1,4-dihydro-2H-quinazolin-3-yl]-methanesulfonamide]: the melting point was in the range of 346 to 348 °C.

The term melting point denotes the temperature, or range, at which the solid turns liquid.

Values taken from US8513268B2, “1H-quinazoline-2,4-diones processes for their production, pharmaceutical compositions, and treatment for epilepsy” (Novartis AG, priority 2005, dated 2013).
